Each structure is given as a SMILES string. “Also recorded” adds a separate entry of the source.

The test system of experiment [1] is cerebellar tissue slices. As to the kind of experiment: MPP+-induced cell death in cerebellar tissue slice culture (PI and NeuN staining). In kind it is cell-based, rat. The settings on record: 30 μM, MPP+ 3 days. The protocol:
Cerebellar tissue slice were treated with 30 μM BHDPC with or without MPP^+ for 72 h and then were stained with PI.
Following decapitation, brains of post-natal Day 9-10 SD rat were dissected out and sagittal slices (300 μm) of the cerebellum were immediately cut using a McIlwain tissue chopper, the slices were then isolated in Eagle's medium with Earle's salts medium (MEM) on ice and then placed on Millipore Millicell-CM™ organotypic culture inserts in pre-warmed medium containing MEM, Earle's balanced salt solution, heat-inactivated horse serum, GlutaMAX™, Fungizone®, and penicillin-streptomycin (each from Invitrogen), and glucose (Sigma). […]
After 3-4 days treatment of MPP^+ together with BHDPC, slices were fixed with 4% paraformaldehyde and then stained by immunohistochemistry. […] Three to four separate slice isolations (about 4-5 pups/isolation) were used, with 3-5 slices analysed from each isolation for each factor and dose.
Slices were fixed with 4% paraformaldehyde at room temperature for 1 hour, blocked with 5% donkey serum, 0.3% Triton™ X-100, and then incubated in primary antibodies for 2 days at 4° C. […] Confocal z-stacks were acquired (at 1.3 μm intervals and 10-15 images were acquired per stack) with a Leica SPE confocal microscope and images analysed using NIH ImageJ. […]

Experiment [2] relates to SH-SY5Y cells. In words: MPP+-induced mitochondrial membrane potential loss (JC-1 assay). The class given is cell-based, human. The settings on record: 2 h pre-treatment; for mitochondrial membrane potential (Δφm) compared to the control group: 2 mM MPP+, MPP+ alone 51%. On the procedure: (FIG. 6A) Δψm was determined by the JC-1 assay.
JC-1 dye was used to monitor mitochondrial integrity. In brief, SH-SY5Y cells were seeded into black 96-well plates (5×10^3 cells/well). After treatment, the cells were incubated with JC-1 (10 μg/mL in medium) at 37° C. for 15 min and then washed twice with PBS. For signal quantification, the intensity of red fluorescence (excitation 560 nm, emission 595 nm) and green fluorescence (excitation 485 nm, emission 535 nm) were determined using a SpectraMax M5. Mitochondrial membrane potential (Δφm) was calculated as the ratio of JC-1 red/green fluorescence intensity and the value was normalized to the control group.
Loss of mitochondrial membrane potential and apoptotic nuclei were hallmarks for early and late stage of apoptosis. To determine whether BHDPC could reduce MPP^+-induced mitochondrial membrane potential (Δφm) loss, the Δφm in SH-SY5Y cells was assessed by analyzing the red/green fluorescent intensity ratio of JC-1 staining (FIG. 6A).

Experiment [3] relates to zebrafish. As to the kind of experiment: MPTP-induced deficit of locomotion behavior in zebrafish larvae. The class given is in vivo, Danio rerio. The protocol:
Three dpf zebrafish embryos were co-incubated with 10 μM MPTP and BHDPC at the indicated concentrations for 96 hours, and zebrafish larval co-treated with MPTP and 150 μM L-dopa was used as positive control. After treatment, zebrafish were collected to perform locomotion behavior test using Viewpoint Zebrabox system and total distances travelled in 10 min were calculated.
The AB strain of wild type zebrafish (Danio rerio) was maintained as described in the Zebrafish Handbook. Zebrafish were staged by days post fertilization […]. For breeding, groups of male and female (3:2) adult zebrafish were placed in 10-L plastic aquarium equipped with spawning nets in the evening. In the following morning, eggs were collected from the breeding group tanks. Normally developed fertilized eggs were selected under a stereomicroscope for further studies. The MPTP manipulation was performed with appropriate safety precautions and all MPTP-containing water was bleached.
In addition, MPTP markedly altered the swimming behavior of the zebrafish as a consequence of DA neuronal injury. […] BHDPC ameliorated MPTP-induced deficit of swimming behavior. At the same condition, MPTP-induced deficit of swimming behavior were rescued by positive controls, levodopa (L-dopa) (FIG. 16).

Experiment [4] deals with SH-SY5Y cells. As to the kind of experiment: MPP+-induced LDH leakage in SH-SY5Y cells (LDH assay). Conditions: 2 h pre-treatment, MPP+ 36 h, MPP+ alone 209%, normalized to control. In kind it is cell-based, human. On the procedure:
Cells were pre-treated with BHDPC (3, 10 and 30 μM) for 2 h and then incubated with or without 1 mM MPP^+ for further 24 h. Cell viability was measured by the MTT assay.
Cell cytotoxicity was also determined by measuring the activity of LDH released into the incubation medium when cellular membranes were damaged. Cells were seeded at 96-well plates (5×10^3 cells/well). After treatment, the released LDH activity in the medium was measured according to the instructions of the Cytotoxicity Detection Kit (Roche Applied Science, Mannheim, Germany). Absorbance at 490 nm was measured using SpectraMax M5. All values of LDH released were normalized to the control group.
The protective activity of BHDPC was also confirmed by the lactate dehydrogenase (LDH) assay. SH-SY5Y cells were treated with BHDPC for 2 h before exposed to MPP^+ for 36 h.
Background: Release of lactate dehydrogenase indicates damage to the cell membrane.

For `COc1cc(C2C(C(=O)OCc3ccccc3)=C(C)Nc3nnnn32)ccc1O` (centres unmarked) [BHDPC, benzyl 7-(4-hydroxy-3-methoxyphenyl)-5-methyl-4,7-dihydrotetrazolo[1,5-a]pyrimidine-6-carboxylate], the entries for the “MPP+-induced CNS cells death and neurons death in brain slices” value in experiment [1] and in experiment [1] (listed as BHDPCs) were “prevented MPP^+-induced neuronal death” and “attenuated”, respectively. In addition, the “mitochondrial membrane potential (Δφm) compared to the control group” value in experiment [2] (3 μM) is given as 53%; in experiment [2] (10 μM), 64%; in experiment [2] (30 μM), 75%. For the same molecule, in experiment [2] (30 μM, 2 mM MPP+ 36 h), the “MPP+-induced mitochondrial membrane potential (Δψm) loss, in words” value is “attenuated”. The “swimming behaviour of normal zebrafish larvae” value in experiment [3] (BHDPC treatment alone) was “notably altered”. Also, the “MPTP-induced deficit of swimming behavior (total distance travelled in 10 min)” value in experiment [3] (co-incubated with 10 μM MPTP, 96 hours, 3 dpf) is “ameliorated; also recorded: attenuated”. Further, the results for the “MPP+-induced LDH leakage” value in experiment [4] (3 μM), in experiment [4] (10 μM) and in experiment [4] (30 μM) were 200%, 184% and 170%, respectively.

For the origin of these results see patent publication US20160113931A1, “Method of treating and/or preventing neurodegenerative diseases” (University of Macau, priority 2014, published 2016).
